# Data reported in PubChem BioAssay (NCI).
#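 Step 1: Grow cells in 96-well plates. Step 2: Expose to compound for 48 hours at 5 concentrations. Step 3: Interpolate endpoints linearly; if unreached, use highest concentration. GI50: concentration for 50% inhibition of growth. TGI denotes the concentration required for complete inhibition of growth.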
# Columns and labels:
# Experiment in all cases: NCI-60 cell line screen, 48 h
# [1] = tested on: 786-0 renal
# [2] = tested on: A498 renal
# [3] = tested on: A549 NSCLC
# [4] = tested on: ACHN renal
# [5] = tested on: BT-549 breast
# [6] = tested on: CAKI-1 renal
# [7] = tested on: CCRF-CEM leukemia
# [8] = tested on: COLO 205 colon
# [9] = tested on: DU-145 prostate
# [10] = tested on: EKVX NSCLC
# [11] = tested on: HCC-2998 colon
# [12] = tested on: HCT-116 colon
# [13] = tested on: HCT-15 colon
# [14] = tested on: HL-60(TB) leukemia
# [15] = tested on: HOP-62 NSCLC
# [16] = tested on: HOP-92 NSCLC
# [17] = tested on: HS 578T breast
# [18] = tested on: HT29 colon
# [19] = tested on: IGROV1 ovarian
# [20] = tested on: K-562 leukemia
# [21] = tested on: KM12 colon
# [22] = tested on: LOX IMVI melanoma
# [23] = tested on: M14 melanoma
# [24] = tested on: MCF7 breast
# [25] = tested on: MDA-MB-231 breast
# [26] = tested on: MDA-MB-435
# [27] = tested on: MOLT-4 leukemia
# [28] = tested on: NCI-H226 lung
# [29] = tested on: NCI-H23 lung
# [30] = tested on: NCI-H460 lung
# [31] = tested on: NCI-H522 lung
# [32] = tested on: NCI/ADR-RES ovarian
# [33] = tested on: OVCAR-3 ovarian
# [34] = tested on: OVCAR-4 ovarian
# [35] = tested on: OVCAR-5 ovarian
# [36] = tested on: OVCAR-8 ovarian
# [37] = tested on: PC-3 prostate
# [38] = tested on: RPMI-8226 leukemia
# [39] = tested on: RXF 393 renal
# [40] = tested on: SF-268 CNS
# [41] = tested on: SF-295 CNS
# [42] = tested on: SF-539 CNS
# [43] = tested on: SK-MEL-2 melanoma
# [44] = tested on: SK-MEL-28 melanoma
# [45] = tested on: SK-MEL-5 melanoma
# [46] = tested on: SK-OV-3 ovarian
# [47] = tested on: SN12C renal
# [48] = tested on: SNB-19 CNS
# [49] = tested on: SNB-75 CNS
# [50] = tested on: SR leukemia
# [51] = tested on: SW-620 colon
# [52] = tested on: T-47D breast
# [53] = tested on: TK-10 renal
# [54] = tested on: U251 CNS
# [55] = tested on: UACC-257 melanoma
# [56] = tested on: UACC-62 melanoma
# [57] = tested on: UO-31 renal
# [58] = tested on: MALME-3M melanoma
smiles,measurement,setting,value
CCCn1cnc2c(c1=N)C(c1ccc(OC)cc1)c1sc3c(C)cccc3c1O2 (stereo not given),GI50,[1],0.523 µM
same,TGI,[1],14.4 µM
same,GI50,[2],0.317 µM
same,TGI,[2],1.03 µM
same,GI50,[3],0.717 µM
same,TGI,[3],18.1 µM
same,GI50,[4],0.604 µM
same,TGI,[4],15.2 µM
same,GI50,[5],1.35 µM
same,TGI,[5],12.7 µM
same,GI50,[6],0.208 µM
same,TGI,[6],15 µM
same,GI50,[7],0.355 µM
same,GI50,[8],0.592 µM
same,TGI,[8],4.92 µM
same,GI50,[9],0.453 µM
same,TGI,[9],15.2 µM
same,GI50,[10],0.598 µM
same,TGI,[10],20.4 µM
same,GI50,[11],0.886 µM
same,TGI,[11],4.91 µM
same,GI50,[12],0.4 µM
same,TGI,[12],10.9 µM
same,GI50,[13],0.408 µM
same,TGI,[13],8.68 µM
same,GI50,[14],0.292 µM
same,TGI,[14],2.68 µM
same,GI50,[15],0.406 µM
same,TGI,[15],16.7 µM
same,GI50,[16],1.18 µM
same,TGI,[16],16.6 µM
same,GI50,[17],0.381 µM
same,TGI,[17],8.87 µM
same,GI50,[18],0.557 µM
same,TGI,[18],13.7 µM
same,GI50,[19],0.472 µM
same,TGI,[19],13.9 µM
same,GI50,[20],0.261 µM
same,TGI,[20],5.52 µM
same,GI50,[21],0.474 µM
same,TGI,[21],12 µM
same,GI50,[22],0.656 µM
same,TGI,[22],12.3 µM
same,GI50,[23],0.401 µM
same,TGI,[23],12.5 µM
same,GI50,[24],0.303 µM
same,TGI,[24],12.9 µM
same,GI50,[25],1.15 µM
same,TGI,[25],15.9 µM
same,GI50,[26],0.187 µM
same,TGI,[26],0.484 µM
same,GI50,[27],0.569 µM
same,TGI,[27],12.7 µM
same,GI50,[28],0.419 µM
same,TGI,[28],9.6 µM
same,GI50,[29],0.535 µM
same,TGI,[29],14.2 µM
same,GI50,[30],0.381 µM
same,TGI,[30],10.5 µM
same,GI50,[31],0.409 µM
same,TGI,[31],7.59 µM
same,GI50,[32],0.359 µM
same,TGI,[32],12.4 µM
same,GI50,[33],0.379 µM
same,TGI,[33],5.92 µM
same,GI50,[34],1.61 µM
same,TGI,[34],20.7 µM
same,GI50,[35],1.16 µM
same,TGI,[35],15 µM
same,GI50,[36],0.564 µM
same,TGI,[36],18.8 µM
same,GI50,[37],0.415 µM
same,TGI,[37],16 µM
same,GI50,[38],0.369 µM
same,TGI,[38],4.45 µM
same,GI50,[39],0.215 µM
same,TGI,[39],0.603 µM
same,GI50,[40],0.787 µM
same,TGI,[40],14.9 µM
same,GI50,[41],0.368 µM
same,TGI,[41],11.6 µM
same,GI50,[42],0.301 µM
same,TGI,[42],1.27 µM
same,GI50,[43],0.719 µM
same,TGI,[43],21 µM
same,GI50,[44],3.34 µM
same,TGI,[44],21.6 µM
same,GI50,[45],0.411 µM
same,TGI,[45],12.5 µM
same,GI50,[46],0.657 µM
same,TGI,[46],22.2 µM
same,GI50,[47],0.635 µM
same,TGI,[47],15.5 µM
same,GI50,[48],0.49 µM
same,TGI,[48],16 µM
same,GI50,[49],0.209 µM
same,TGI,[49],1.7 µM
same,GI50,[50],0.349 µM
same,GI50,[51],0.517 µM
same,TGI,[51],17.3 µM
same,GI50,[52],0.527 µM
same,TGI,[52],30.4 µM
same,GI50,[53],8.09 µM
same,TGI,[53],33.9 µM
same,GI50,[54],0.445 µM
same,TGI,[54],12.9 µM
same,GI50,[55],12.9 µM
same,TGI,[55],35.5 µM
same,GI50,[56],0.439 µM
same,TGI,[56],15 µM
same,GI50,[57],0.406 µM
same,TGI,[57],16.5 µM
Cc1ccc2c(c1)Oc1nc(N)c(C#N)c(N)c1C2Sc1ccc(F)cc1 (stereo not given),GI50,[1],1.19 µM
same,TGI,[1],2.45 µM
same,GI50,[2],1.45 µM
same,TGI,[2],2.78 µM
same,GI50,[3],1.55 µM
same,TGI,[3],3.01 µM
same,GI50,[4],1.34 µM
same,TGI,[4],2.63 µM
same,GI50,[5],0.415 µM
same,TGI,[5],1.71 µM
same,GI50,[7],0.201 µM
same,TGI,[7],> 100 µM
same,GI50,[8],1.33 µM
same,TGI,[8],2.78 µM
same,GI50,[9],1.48 µM
same,TGI,[9],2.82 µM
same,GI50,[10],1.22 µM
same,TGI,[10],2.47 µM
same,GI50,[11],1.51 µM
same,TGI,[11],2.92 µM
same,GI50,[14],0.242 µM
same,TGI,[14],0.647 µM
same,GI50,[15],1.62 µM
same,TGI,[15],3.08 µM
same,GI50,[16],1.14 µM
same,TGI,[16],2.44 µM
same,GI50,[17],1.02 µM
same,TGI,[17],4.22 µM
same,GI50,[18],1.82 µM
same,TGI,[18],3.43 µM
same,GI50,[20],0.309 µM
same,TGI,[20],> 100 µM
same,GI50,[21],1.48 µM
same,TGI,[21],2.83 µM
same,GI50,[23],1.44 µM
same,TGI,[23],2.85 µM
same,GI50,[58],0.992 µM
same,TGI,[58],2.34 µM
same,GI50,[24],0.361 µM
same,TGI,[24],1.99 µM
same,GI50,[26],1.26 µM
same,TGI,[26],2.67 µM
same,GI50,[27],0.306 µM
same,GI50,[28],1.53 µM
same,TGI,[28],4.16 µM
same,GI50,[31],0.785 µM
same,TGI,[31],2.1 µM
same,GI50,[34],1.45 µM
same,TGI,[34],2.78 µM
same,GI50,[36],1.3 µM
same,TGI,[36],2.61 µM
same,GI50,[38],0.448 µM
same,TGI,[38],> 100 µM
same,GI50,[39],0.611 µM
same,TGI,[39],1.69 µM
same,GI50,[40],1.23 µM
same,TGI,[40],2.52 µM
same,GI50,[41],1.68 µM
same,TGI,[41],3.07 µM
same,GI50,[42],1.34 µM
same,TGI,[42],2.63 µM
same,GI50,[43],1.3 µM
same,TGI,[43],2.6 µM
same,GI50,[44],1.17 µM
same,TGI,[44],2.4 µM
same,GI50,[45],1.57 µM
same,TGI,[45],2.95 µM
same,GI50,[46],1.8 µM
same,TGI,[46],3.29 µM
same,GI50,[49],0.956 µM
same,TGI,[49],2.33 µM
same,GI50,[50],0.301 µM
same,TGI,[50],> 100 µM
same,GI50,[53],2.23 µM
same,TGI,[53],3.7 µM
same,GI50,[54],1.17 µM
same,TGI,[54],2.49 µM
same,GI50,[55],1.29 µM
same,TGI,[55],2.58 µM
same,GI50,[56],1.5 µM
same,TGI,[56],2.87 µM
same,GI50,[57],0.215 µM
same,TGI,[57],1.72 µM
